Assay results as given in patent US12162857B2, “Antiviral compounds” (priority 2022, dated 2024).

The compounds below were run on HMPV A2 TN/94-49 (assay: HMPV antiviral assay: LLC-MK2 cells, ATP-Lite readout). Conditions: LLC-MK2, 168 h, MOI 0.005, 7 days incubation.
Assay type: cell-based
Experimental: In vitro HMPV antiviral activity was evaluated using the clinical isolate A2 strain TN 94-49 and LLC-MK2 cells (ATCC #CCL-7), an immortalized kidney epithelial cell line from Macaca mulatta. Compounds were resuspended in dimethyl sulfoxide (DMSO) at 10 mM, serially diluted and added to a 384-well source plate. Subsequently, the compounds were diluted and transferred onto 384-well assay plates using the Echo-650 automated liquid handling system (Beckman Coulter, Indiana). The test compounds were assessed in duplicate at a top concentration of 2 μM followed by 2.5-fold serial dilutions to give a total of 10 concentration points. DMSO control wells were also included on the assay plates and were either infected or not, acting as positive and negative controls. A2 TN 94-49 virus infections were performed in-suspension with LLC-MK2 cells. The cells were washed twice with PBS and removed from the cell-culture flask with 0.25% trypsin-EDTA (Thermo Fisher Scientific, MA). The trypsin-EDTA was inactivated by resuspending in 2% fetal bovine serum (FBS) and OptiMEM (ThermoFisher Scientific, MA) containing 1% penicillin-streptomycin. Cells were pelleted by centrifuging for 5 minutes at 800 rpm, the supernatant was removed, and cells were re-suspended and washed in PBS plus 100 μg/mL CaCl2). This step was performed twice. Cells were then re-suspended in serum-free (SF)-OptiMEM containing 4 μg/mL TPCK-Trypsin (Sigma Aldrich, MO), 1% penicillin-streptomycin (ThermoFisher Scientific, MA) and 100 μg/mL CaCl2). Cells were counted and seeded at a density of 5,000 cells/well, 12.5 μL/well. Virus infections were done at a multiplicity of infection (MOI) of 0.005 with 12.5 μL added per well. Virus infections were performed in infection media which contained SF-OptiMEM, 100 μg/mL CaCl2) and 1% penicillin-streptomycin. HMPV viral stocks are suspended in infection media+5% glycerol, thus an equal volume of infection media+5% glycerol was added to uninfected wells to equalize the final % glycerol across all wells of the assay plate. The final concentration of TPCK-trypsin was 2 μg/mL. The assay plates were incubated at 37° C., 5% CO2 for 7 days. After 7 days incubation, 12.5 μL of ATP-Lite (PerkinElmer, MA) was added to each well and the raw luminescence values were determined using the Envision 2104 (Perkin Elmer, MA). The average of the raw luminescence values for the cells and virus only positive control wells was subtracted from all conditions tested and the percent cell health was determined by dividing these values by the average of the cells only negative control wells. EC50 values were then calculated by non-linear regression using a four-parameter curve logistic equation. The curve fit model employed was XLFit Dose Response One Site Model 200: y=(A+(B/(1+((x/C)^D)))), where A is the minimum y value, B is the maximum y value, C is the log EC50 value, and D is the slope factor. […] EC50 ranges are as follows: A<1 μM; B>1 μM.
`COc1cc(C(=O)NC[C@@](O)(c2ccccc2)c2cc(C(C)(C)O)c(Cl)c(-c3ccc4c(c3Cl)OC(F)(F)O4)n2)cc2sc(C)nc12` [Example 135] showed an EC50 of over 1000 nM. With `COc1cc(C(=O)NC[C@](O)(c2cc(C(C)(C)O)c(F)c(-c3ccc(F)c(Cl)c3F)n2)C2CC2)cc2cn(C(F)F)nc12` [Example 118] the EC50 was under 1000 nM. For `COc1cc(C(=O)NC[C@@](O)(c2ccccc2)c2cc(C(C)(C)O)c(F)c(-c3ccc4c(c3Cl)OC(F)(F)O4)n2)cc2cn(C(F)F)nc12` [Example 76], the EC50 was under 1000 nM. `COc1cc(C(=O)NC[C@](O)(c2cc(C(C)(C)O)c(F)c(-c3cc(Cl)c(F)cc3F)n2)c2nccs2)cc2cn(C3CC3)nc12` [Example 58] gave an EC50 of under 1000 nM. In the case of `COc1cc(C(=O)NC[C@@](O)(c2cccc(F)c2)c2cc(C(C)(C)O)c(F)c(-c3ccc4c(c3Cl)OC(F)(F)O4)n2)cc2sc(C)nc12` [Example 108], the EC50 is reported as under 1000 nM. Work on `COc1cc(C(=O)NC[C@@](O)(c2cccc(F)c2)c2cc(C(C)(C)O)c(F)c(-c3cccc(Cl)c3Cl)n2)cc2cn(C(F)F)nc12` [Example 99] yielded an EC50 of under 1000 nM. Compound `COc1cc(C(=O)NC[C@](O)(c2cc(C(C)(C)O)c(F)c(-c3ccc(F)c(Cl)c3F)n2)C2CC2)cc2cn(C3(F)CC3)nc12` [Example 120] has an EC50 of under 1000 nM. Compound `COc1cc(C(=O)NC[C@@](O)(c2ccccc2)c2cc(C(C)(C)O)c(Cl)c(-c3cccc(Cl)c3Cl)n2)cc2sc(C)nc12` [Example 139] has an EC50 of under 1000 nM. `COc1cc(C(=O)NC[C@@](O)(c2cccc(F)c2)c2cc(C(C)(C)O)c(F)c(-c3cc(Cl)c(F)cc3F)n2)cc2cn(C3CC3)nc12` [Example 90] was tested, and the EC50 was under 1000 nM. With `COc1cc(C(=O)NC[C@@](O)(c2ccccc2)c2cc(C(C)(C)O)c(F)c(-c3cccc(Cl)c3Cl)n2)cc2cn(C(F)F)nc12` [Example 80] the EC50 was under 1000 nM. Compound `COc1cc(C(=O)NC[C@@](O)(c2ccccc2)c2cc(C(C)(C)O)c(F)c(-c3ccc(F)cc3F)n2)cc2cn(C3CC3)nc12` [Example 87] has an EC50 of over 1000 nM. Work on `COc1cc(C(=O)NC[C@](O)(c2cc(C(C)(C)O)c(F)c(-c3cc(Cl)c(F)cc3F)n2)C2CC2)cc2cc(C3CC3)nn12` [Example 56] yielded an EC50 of under 1000 nM. Work on `[2H]C([2H])([2H])C(O)(c1cc([C@@](O)(CNC(=O)c2cc(OC)n3nc(C4CC4)cc3c2)C2CC2)nc(-c2cc(Cl)c(F)cc2F)c1F)C([2H])([2H])[2H]` [Example 187] yielded an EC50 of under 1000 nM. `COc1cc(C(=O)NC[C@](O)(c2ccc(F)c(-c3cc(Cl)c(F)cc3F)n2)C2CC2)cc2cn(C(F)F)nc12` [Example 174] gave an EC50 of over 1000 nM. For `COc1cc(C(=O)NC[C@@](O)(c2ccccc2)c2cc(C(C)(C)O)c(Cl)c(-c3cc(Cl)c(F)cc3F)n2)cc2sc(C)nc12` [Example 131], the EC50 was over 1000 nM. With `COc1cc(C(=O)NC[C@@](O)(c2ccccc2)c2cc(N3C(=O)CCC3C(N)=O)cc(-c3cc(Cl)c(F)cc3F)n2)cc2cn(C3CC3)nc12` (stereo partly shown) [Example 197] the EC50 was over 1000 nM. `COc1cc(C(=O)NC[C@@](O)(c2ccccc2)c2cc(C(=O)NC3CC3)c(F)c(-c3cc(Cl)c(F)cc3F)n2)cc2cn(C3CC3)nc12` [Example 194] was tested, and the EC50 was over 1000 nM. `CC(C)(O)c1cc([C@@](O)(CNC(=O)c2cc(Cl)c3nn(C4CC4)cc3c2)c2cccc(F)c2)nc(-c2cc(F)c(F)cc2F)c1F` [Example 97] showed an EC50 of under 1000 nM. For `[2H]C([2H])([2H])C(O)(c1cc([C@@](O)(CNC(=O)c2cc(OC)c3nn(C(F)F)cc3c2)C2CC2)nc(-c2cc(Cl)c(F)cc2F)c1F)C([2H])([2H])[2H]` [Example 188], the EC50 was under 1000 nM. Work on `CC(C)(O)c1cc([C@@](O)(CNC(=O)c2cc(Cl)c3nn(C4CC4)cc3c2)c2cccc(F)c2)nc(-c2cccc(Cl)c2Cl)c1F` [Example 100] yielded an EC50 of over 1000 nM. For `COc1cc(C(=O)NC[C@@](O)(c2ccccc2)c2cc(C(C)(C)F)c(F)c(-c3cc(Cl)c(F)cc3F)n2)cc2cn(C(F)F)nc12` [Example 182], the EC50 was over 1000 nM. For `COc1cc(C(=O)NC[C@@](O)(c2ccccc2)c2cc(C(C)(C)O)cc(-c3ccc4c(c3Cl)OC(F)(F)O4)n2)cc2cn(C(F)F)nc12` [Example 158], the EC50 was under 1000 nM. `COc1cc(C(=O)NC[C@@](O)(c2ccccc2)c2cc(C(C)(C)O)c(Cl)c(-c3cccc(Cl)c3Cl)n2)cc2cn(C(F)F)nc12` [Example 142] gave an EC50 of over 1000 nM. For `CC(C)(O)c1cc([C@@](O)(CNC(=O)c2cc(OC3CC3)c3nn(C4CC4)cc3c2)c2ccccc2)nc(-c2cc(Cl)c(F)cc2F)c1F` [Example 63], the EC50 was under 1000 nM. `COc1cc(C(=O)NC[C@@](O)(c2ccccc2)c2cc(C(C)(C)O)cc(-c3cccc(Cl)c3Cl)n2)cc2cn(C(F)F)nc12` [Example 150] showed an EC50 of under 1000 nM. `COc1c(C(C)(C)O)cc([C@@](O)(CNC(=O)c2cc(OC)c3nn(C4CC4)cc3c2)C2CC2)nc1-c1cc(F)c(F)cc1F` (single isomer, unassigned) [Example 165] showed an EC50 of over 1000 nM. `COc1cc(C(=O)NC[C@@](O)(c2ccccc2)c2nc(-c3cc(Cl)c(F)cc3F)c(F)c(C(C)(C)O)c2F)cc2sc(C)nc12` [Example 130] gave an EC50 of under 1000 nM. Compound `COc1cc(C(=O)NC[C@](O)(c2cc(C(C)(C)F)c(F)c(-c3cc(Cl)c(F)cc3F)n2)C2CC2)cc2cc(C3CC3)nn12` [Example 178] has an EC50 of over 1000 nM. `COc1cc(C(=O)NC[C@@](O)(c2ccccc2)c2cc(C(C)(C)F)c(F)c(-c3cc(Cl)c(F)cc3F)n2)cc2cc(C3CC3)nn12` [Example 181] showed an EC50 of over 1000 nM. `COc1cc(C(=O)NC[C@@](O)(c2ccccc2)c2nc(-c3cc(Cl)c(F)cc3F)c(F)c(C(C)(C)O)c2F)cc2cn(C(F)F)nc12` [Example 128] showed an EC50 of under 1000 nM. `COc1cc(C(=O)NC[C@@](O)(c2ccccc2)c2cc(C(C)(C)O)c(F)c(-c3ccc4c(c3Cl)OC(F)(F)O4)n2)cc2cc(C3CC3)nn12` [Example 72] showed an EC50 of under 1000 nM. `COc1cc(C(=O)NC[C@@](O)(c2ccccc2)c2cc(C(C)(C)F)c(F)c(-c3cc(Cl)c(F)cc3F)n2)cc2cn(C3CC3)nc12` [Example 180] showed an EC50 of over 1000 nM. For `CC(C)(O)c1cc([C@@](O)(CNC(=O)c2cc(Cl)c3nn(C4CC4)cc3c2)c2cccc(F)c2)nc(-c2cc(Cl)c(F)cc2F)c1F` [Example 91], the EC50 was under 1000 nM. With `COc1cc(C(=O)NC[C@@](O)(c2cccc(F)c2)c2cc(C(C)(C)O)c(F)c(-c3cc(F)c(F)cc3F)n2)cc2cc(C3CC3)nn12` [Example 95] the EC50 was under 1000 nM. Compound `CC(C)(O)c1cc([C@@](O)(CNC(=O)c2cc(Cl)c3nn(C4CC4)cc3c2)c2ccccc2)nc(-c2cc(Cl)c(F)cc2F)c1Cl` [Example 133] has an EC50 of over 1000 nM. `COc1cc(C(=O)NC[C@](O)(c2ccc(F)c(-c3cc(Cl)c(F)cc3F)n2)C2CC2)cc2cn(C3(F)CC3)nc12` [Example 173] gave an EC50 of over 1000 nM. `COc1cc(C(=O)NC[C@@](O)(c2ccccc2)c2cc(C(C)(C)C(N)=O)c(F)c(-c3cc(Cl)c(F)cc3F)n2)cc2sc(C)nc12` [Example 163] was tested, and the EC50 was over 1000 nM. `CNC(=O)c1cc([C@@](O)(CNC(=O)c2cc(OC)c3nn(C4CC4)cc3c2)c2ccccc2)nc(-c2cc(Cl)c(F)cc2F)c1F` [Example 192] showed an EC50 of over 1000 nM. With `CC(C)(O)c1cc([C@@](O)(CNC(=O)c2cc(Cl)c3nn(C4CC4)cc3c2)c2cccc(F)c2)nc(-c2ccc(F)c(Cl)c2Cl)c1F` [Example 105] the EC50 was under 1000 nM. Work on `COc1cc(C(=O)NC[C@](O)(c2cc(C(C)(C)O)c(F)c(-c3ccc(F)c(Cl)c3F)n2)C2CC2)cc2cn(C3CC3)nc12` [Example 119] yielded an EC50 of under 1000 nM. `COc1cc(C(=O)NC[C@](O)(c2cc(C(C)(C)O)c(F)c(-c3cc(Cl)c(F)cc3F)n2)c2cccs2)cc2cn(C3CC3)nc12` [Example 113] gave an EC50 of under 1000 nM. `COc1cc(C(=O)NC[C@@](O)(c2cccc(F)c2)c2cc(C(C)(C)O)c(F)c(-c3ccc4c(c3Cl)OC(F)(F)O4)n2)cc2cn(C3CC3)nc12` [Example 109] was tested, and the EC50 was under 1000 nM. `COc1cc(C(=O)NC[C@@](O)(c2ccccc2)c2cc(C(C)(C)O)cc(-c3ccc(F)c(Cl)c3Cl)n2)cc2sc(C)nc12` [Example 151] gave an EC50 of under 1000 nM. `COc1cc(C(=O)NC[C@](O)(c2cc(C3(O)COC3)c(F)c(-c3cc(Cl)c(F)cc3F)n2)C2CC2)cc2cn(C3CC3)nc12` [Example 167] was tested, and the EC50 was over 1000 nM. `COc1cc(C(=O)NC[C@@](O)(c2ccccc2)c2cc(C(C)(C)O)cc(-c3cccc(Cl)c3Cl)n2)cc2cn(C3CC3)nc12` [Example 148] was tested, and the EC50 was under 1000 nM. In the case of `COc1cc(C(=O)NC[C@](O)(c2ccc(F)c(-c3cc(F)c(F)cc3F)n2)C2CC2)cc2cn(C3CC3)nc12` [Example 172], the EC50 is reported as over 1000 nM.
